Data: the supplement of paper PMC11451515

Assays:
Conditions in all cases: 48 h
NOMO1 [1] = assay: cell viability relative to DMSO control; higher = less cytotoxic
Summary of the method: (§1)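 Viability, reported as a per-plate percentage of DMSO wells with cell-free wells as background, came from CellTiter-Glo One luminescence. Reading took place after 48 h at 37°C. Before that, NOMO1 or SEM (500 cells/well) or P12-Ichikawa (1000 cells/well) leukemia cells, adapted for at least four passages in each medium, were seeded in 1536-well plates (5 μl) and pin-dosed with library compounds in DMSO, 47 μM to 0.79 nM over 11 threefold points.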

P12-Ichikawa [2] = assay: as above
Summary of the method: as §1

SEM cells [3] = assay: as above
Summary of the method: as §1

NOMO1 [4] = assay: AUC of viability dose-response curve (% viability x log10 dose units); higher = less sensitive
Summary of the method: (§2)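 Leukemia cells adapted to each medium were seeded in 1536-well plates (500 or 1000 cells/well). They were dosed with library compounds in DMSO at 11 threefold doses, 47 μM to 0.79 nM, for 48 h at 37°C. CellTiter-Glo One luminescence was normalised per plate to DMSO and cell-free wells. Area under the curve was integrated by trapezoidal rule over log10 doses on a four-parameter log-logistic fit; curves exceeding full viability were scaled and curves failing quality control removed.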

P12-Ichikawa [5] = assay: as above
Summary of the method: as §2

SEM cells [6] = assay: as above
Summary of the method: as §2

CN(C)c1ccc(C(=O)NCCCCCCC(=O)NO)cc1
cell viability [%]
Conditions | NOMO1 [1] | P12-Ichikawa [2] | SEM cells [3]
HPLM + 10% dialyzed FBS, 0.000781 µM | 106 | 107 | 97.1
HPLM + 10% dialyzed FBS, 0.00234 µM | 103 | 102 | 94.4
HPLM + 10% dialyzed FBS, 0.00702 µM | 104 | 114 | 91.8
HPLM + 10% dialyzed FBS, 0.0211 µM | 94.9 | 104 | 88.1
HPLM + 10% dialyzed FBS, 0.0632 µM | 106 | 110 | 97.7
HPLM + 10% dialyzed FBS, 0.19 µM | 83.5 | 111 | 96.2
HPLM + 10% dialyzed FBS, 0.569 µM | 112 | 102 | 93.9
HPLM + 10% dialyzed FBS, 1.71 µM | 89 | 44 | 34
HPLM + 10% dialyzed FBS, 5.12 µM | 7.42 | 1.14 | 3.1
HPLM + 10% dialyzed FBS, 15.4 µM | 3.13 | 0.537 | 1.85
HPLM + 10% dialyzed FBS, 46.1 µM | 3.88 | 1.62 | 2.9
RPMI 5 mM glucose + 10% FBS, 0.000781 µM | 91.1 | 101 | 91.8
RPMI 5 mM glucose + 10% FBS, 0.00234 µM | 90.6 | 104 | 100
RPMI 5 mM glucose + 10% FBS, 0.00702 µM | 103 | 109 | 94.6
RPMI 5 mM glucose + 10% FBS, 0.0211 µM | 92.3 | 110 | 92
RPMI 5 mM glucose + 10% FBS, 0.0632 µM | 95.8 | 116 | 112
RPMI 5 mM glucose + 10% FBS, 0.19 µM | 99.8 | 108 | 94.8
RPMI 5 mM glucose + 10% FBS, 0.569 µM | 91.4 | 99.5 | 76.2
RPMI 5 mM glucose + 10% FBS, 1.71 µM | 92 | 46.9 | 37.3
RPMI 5 mM glucose + 10% FBS, 5.12 µM | 6.22 | 1.46 | 3.1
RPMI 5 mM glucose + 10% FBS, 15.4 µM | 2.81 | 0.517 | 1.95
RPMI 5 mM glucose + 10% FBS, 46.1 µM | 2.37 | 1.9 | 3.03
RPMI 5 mM glucose + 10% dialyzed FBS, 0.000781 µM | 102 | 94.9 | 93.2
RPMI 5 mM glucose + 10% dialyzed FBS, 0.00234 µM | 103 | 105 | 111
RPMI 5 mM glucose + 10% dialyzed FBS, 0.00702 µM | 124 | 113 | 105
RPMI 5 mM glucose + 10% dialyzed FBS, 0.0211 µM | 106 | 116 | 96.4
RPMI 5 mM glucose + 10% dialyzed FBS, 0.0632 µM | 112 | 122 | 95
RPMI 5 mM glucose + 10% dialyzed FBS, 0.19 µM | 105 | 121 | 90.7
RPMI 5 mM glucose + 10% dialyzed FBS, 0.569 µM | 106 | 98.6 | 83.5
RPMI 5 mM glucose + 10% dialyzed FBS, 1.71 µM | 89 | 25.4 | 31.4
RPMI 5 mM glucose + 10% dialyzed FBS, 5.12 µM | 7.05 | 1.41 | 2.63
RPMI 5 mM glucose + 10% dialyzed FBS, 15.4 µM | 3.1 | 0.539 | 1.52
RPMI 5 mM glucose + 10% dialyzed FBS, 46.1 µM | 3.05 | 1.68 | 3.31

AUC of viability dose-response curve
Conditions | NOMO1 [4] | P12-Ichikawa [5] | SEM cells [6]
HPLM + 10% dialyzed FBS | 358 | 329 | 311
RPMI 5 mM glucose + 10% FBS | 343 | 330 | 314
RPMI 5 mM glucose + 10% dialyzed FBS | 354 | 317 | 316

Cl.Cl.Fc1ccc(C(OCCN2CCN(CCCc3ccccc3)CC2)c2ccc(F)cc2)cc1
cell viability [%]
Conditions | NOMO1 [1] | P12-Ichikawa [2] | SEM cells [3]
HPLM + 10% dialyzed FBS, 0.000781 µM | 120 | 105 | 97.4
HPLM + 10% dialyzed FBS, 0.00234 µM | 113 | 104 | 96
HPLM + 10% dialyzed FBS, 0.00702 µM | 127 | 109 | 99.3
HPLM + 10% dialyzed FBS, 0.0211 µM | 125 | 112 | 104
HPLM + 10% dialyzed FBS, 0.0632 µM | 139 | 116 | 104
HPLM + 10% dialyzed FBS, 0.19 µM | 123 | 109 | 93.2
HPLM + 10% dialyzed FBS, 0.569 µM | 127 | 109 | 97.1
HPLM + 10% dialyzed FBS, 1.71 µM | 130 | 113 | 113
HPLM + 10% dialyzed FBS, 5.12 µM | 104 | 120 | 111
HPLM + 10% dialyzed FBS, 15.4 µM | 93.1 | 113 | 99.7
HPLM + 10% dialyzed FBS, 46.1 µM | 11.3 | 78.4 | 32.4
RPMI 5 mM glucose + 10% FBS, 0.000781 µM | 119 | 114 | 111
RPMI 5 mM glucose + 10% FBS, 0.00234 µM | 116 | 133 | 112
RPMI 5 mM glucose + 10% FBS, 0.00702 µM | 116 | 118 | 111
RPMI 5 mM glucose + 10% FBS, 0.0211 µM | 119 | 123 | 120
RPMI 5 mM glucose + 10% FBS, 0.0632 µM | 111 | 136 | 109
RPMI 5 mM glucose + 10% FBS, 0.19 µM | 109 | 126 | 114
RPMI 5 mM glucose + 10% FBS, 0.569 µM | 117 | 126 | 103
RPMI 5 mM glucose + 10% FBS, 1.71 µM | 113 | 124 | 107
RPMI 5 mM glucose + 10% FBS, 5.12 µM | 108 | 122 | 102
RPMI 5 mM glucose + 10% FBS, 15.4 µM | 116 | 124 | 115
RPMI 5 mM glucose + 10% FBS, 46.1 µM | 18.5 | 73.9 | 22.3
RPMI 5 mM glucose + 10% dialyzed FBS, 0.000781 µM | 113 | 115 | 84.9
RPMI 5 mM glucose + 10% dialyzed FBS, 0.00234 µM | 129 | 121 | 99.5
RPMI 5 mM glucose + 10% dialyzed FBS, 0.00702 µM | 113 | 119 | 105
RPMI 5 mM glucose + 10% dialyzed FBS, 0.0211 µM | 126 | 117 | 118
RPMI 5 mM glucose + 10% dialyzed FBS, 0.0632 µM | 123 | 127 | 120
RPMI 5 mM glucose + 10% dialyzed FBS, 0.19 µM | 135 | 121 | 124
RPMI 5 mM glucose + 10% dialyzed FBS, 0.569 µM | 112 | 122 | 130
RPMI 5 mM glucose + 10% dialyzed FBS, 1.71 µM | 118 | 115 | 122
RPMI 5 mM glucose + 10% dialyzed FBS, 5.12 µM | 122 | 120 | 120
RPMI 5 mM glucose + 10% dialyzed FBS, 15.4 µM | 96.4 | 120 | 110
RPMI 5 mM glucose + 10% dialyzed FBS, 46.1 µM | 12.9 | 62.8 | 27.9

AUC of viability dose-response curve
Conditions | NOMO1 [4] | P12-Ichikawa [5] | SEM cells [6]
HPLM + 10% dialyzed FBS | 438 | 470 | 460
RPMI 5 mM glucose + 10% FBS | 457 | 467 | 458
RPMI 5 mM glucose + 10% dialyzed FBS | 446 | 465 | 458

N/C(=N\C(=O)c1nc(Cl)c(N)nc1N)NCc1ccccc1
cell viability [%]
Conditions | NOMO1 [1] | P12-Ichikawa [2] | SEM cells [3]
HPLM + 10% dialyzed FBS, 0.000781 µM | 81 | 101 | 74.5
HPLM + 10% dialyzed FBS, 0.00234 µM | 99.5 | 106 | 91.8
HPLM + 10% dialyzed FBS, 0.00702 µM | 90.7 | 105 | 92.9
HPLM + 10% dialyzed FBS, 0.0211 µM | 118 | 103 | 106
HPLM + 10% dialyzed FBS, 0.0632 µM | 108 | 108 | 91.3
HPLM + 10% dialyzed FBS, 0.19 µM | 108 | 105 | 94.6
HPLM + 10% dialyzed FBS, 0.569 µM | 109 | 108 | 113
HPLM + 10% dialyzed FBS, 1.71 µM | 109 | 108 | 102
HPLM + 10% dialyzed FBS, 5.12 µM | 97.6 | 101 | 98.8
HPLM + 10% dialyzed FBS, 15.4 µM | 76.2 | 98.7 | 85
HPLM + 10% dialyzed FBS, 46.1 µM | 36.9 | 70.9 | 77.2
RPMI 5 mM glucose + 10% FBS, 0.000781 µM | 80.5 | 84.9 | 76.4
RPMI 5 mM glucose + 10% FBS, 0.00234 µM | 92.8 | 96.9 | 91.1
RPMI 5 mM glucose + 10% FBS, 0.00702 µM | 83.7 | 83.3 | 95.2
RPMI 5 mM glucose + 10% FBS, 0.0211 µM | 88.3 | 92.1 | 94.3
RPMI 5 mM glucose + 10% FBS, 0.0632 µM | 93.5 | 99 | 83.8
RPMI 5 mM glucose + 10% FBS, 0.19 µM | 89 | 103 | 96.5
RPMI 5 mM glucose + 10% FBS, 0.569 µM | 99 | 106 | 84.3
RPMI 5 mM glucose + 10% FBS, 1.71 µM | 87.8 | 95.1 | 97.3
RPMI 5 mM glucose + 10% FBS, 5.12 µM | 92.8 | 107 | 94.6
RPMI 5 mM glucose + 10% FBS, 15.4 µM | 72.4 | 96.5 | 62.3
RPMI 5 mM glucose + 10% FBS, 46.1 µM | 28.5 | 58.4 | 43.5
RPMI 5 mM glucose + 10% dialyzed FBS, 0.000781 µM | 83.1 | 82.5 | 91
RPMI 5 mM glucose + 10% dialyzed FBS, 0.00234 µM | 97 | 94.1 | 103
RPMI 5 mM glucose + 10% dialyzed FBS, 0.00702 µM | 96.2 | 94.1 | 94
RPMI 5 mM glucose + 10% dialyzed FBS, 0.0211 µM | 90.8 | 88.2 | 102
RPMI 5 mM glucose + 10% dialyzed FBS, 0.0632 µM | 104 | 94.4 | 81.6
RPMI 5 mM glucose + 10% dialyzed FBS, 0.19 µM | 100 | 101 | 99.8
RPMI 5 mM glucose + 10% dialyzed FBS, 0.569 µM | 107 | 103 | 94.2
RPMI 5 mM glucose + 10% dialyzed FBS, 1.71 µM | 111 | 106 | 99.5
RPMI 5 mM glucose + 10% dialyzed FBS, 5.12 µM | 87.4 | 98.2 | 90.8
RPMI 5 mM glucose + 10% dialyzed FBS, 15.4 µM | 84.2 | 76.1 | 76.2
RPMI 5 mM glucose + 10% dialyzed FBS, 46.1 µM | 49.1 | 51.4 | 59.7

AUC of viability dose-response curve
Conditions | NOMO1 [4] | P12-Ichikawa [5] | SEM cells [6]
HPLM + 10% dialyzed FBS | 448 | 465 | 449
RPMI 5 mM glucose + 10% FBS | 405 | 449 | 407
RPMI 5 mM glucose + 10% dialyzed FBS | 447 | 436 | 436
